Experimental data reported in ChEMBL document CHEMBL4715844, “Structure-based virtual screening and biological evaluation of novel non-bisphosphonate farnesyl pyrophosphate synthase inhibitors” (Eur J Med Chem, 2020).

Legend:
[1] = test system: LoVo; assay: Cytotoxicity against FPPS-positive human Lovo cells assessed as reduction in cell viability measured after 48 hrs by MTT assay
[2] = test system: HCT-116; assay: Cytotoxicity against FPPS-positive human HCT116 cells assessed as reduction in cell viability measured after 48 hrs by MTT assay; details: HCT-116, 48 h
[3] = test system: MDA-MB-231; assay: Cytotoxicity against FPPS-negative human MDA-MB-231 cells assessed as reduction in cell viability measured after 48 hrs by MTT assay; assay type: functional, cell-based; details: MDA-MB-231, 48 h
[4] = target: T1, Farnesyl pyrophosphate synthase (Rattus norvegicus) (UniProt P05369); assay: Inhibition of rat FPPS expressed in Escherichia coli BL21 (DE3) using GPP and IPP as substrate at 10 uM incubated for 10 mins by microplate reader
T1 sequence (whole entry): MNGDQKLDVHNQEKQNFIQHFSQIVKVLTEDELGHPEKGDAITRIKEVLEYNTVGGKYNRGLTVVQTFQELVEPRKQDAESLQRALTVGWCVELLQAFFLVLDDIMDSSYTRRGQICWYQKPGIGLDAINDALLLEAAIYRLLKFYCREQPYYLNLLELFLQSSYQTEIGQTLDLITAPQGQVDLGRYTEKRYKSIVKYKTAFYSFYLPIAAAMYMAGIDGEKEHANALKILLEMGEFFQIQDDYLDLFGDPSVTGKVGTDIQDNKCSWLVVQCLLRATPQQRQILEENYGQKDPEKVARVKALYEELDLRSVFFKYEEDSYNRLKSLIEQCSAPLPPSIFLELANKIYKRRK

[5] = target: T2, Farnesyl pyrophosphate synthase (Rattus norvegicus, UniProt P05369); assay: Binding affinity to rat FPPS expressed in Escherichia coli BL21 (DE3) by isothermal titration calorimetry
T2 sequence (P05369 whole entry): T1 sequence (whole entry)

inhibition [4] [%] | Kd [5] [µM] | Compound | IC50 [1] [µM] | IC50 [2] [µM] | IC50 [3] [µM]
– | – | O=P(O)(O)C(O)(Cn1ccnc1)P(=O)(O)O [ZOLEDRONIC ACID] | 34.9 | 61.6 | > 100
29.9 | 48.1 | CC(=O)N[C@H]1[C@H](OCc2ccccc2)O[C@H](CO)[C@@H](O)[C@@H]1O | – | – | –
